Experiments:
[1] = tested on: high-level brain ammonia animal model; assay: Brain tissue ammonia concentration reducing experiment (oral); type: in vivo, SD rats; details: for Reduction rate: brain tissue ammonia, oral for 4 days, 60 min after acetamide on 4th day; for Brain tissue ammonia concentration: oral for 4 days (sodium glutamate 200 mg/kg, Cryptotanshinone 150 mg/kg), brain 60 min after acetamide on 4th day
Excerpt: (§1) The dose of sodium glutamate in this example and following examples was settled with the reference of its actual clinical dose. The method for determining the blood ammonia concentration in this example and following examples was enzyme-UV method, the instrument used was HITACHI-7170 automatic analyzer, and the kit used was AMMONIA kit. Calculation formula of decrease ratio in Table 1 and following tables was: Decrease rate=[1−(concentration of treating group−concentration of normal control group)/(concentration of experimental control group−concentration of normal control group)]×100%.
Experimental animals were 50 healthy male SD rats, weight between 250-300 g. They were randomly divided into 4 groups, i.e. normal control group, experimental control group ([…]), sodium glutamate/acetamide group, and Cryptotanshinone/acetamide group. […] 45 min after the injection, the rats in all those groups except the normal control group were injected intraperitoneally with 5.5 mmol/kg acetamide. Above injections continued for 4 days. In the 4th day, 60 min after the acetamide injection, the rats of each group were put to death, and brain tissue samples were taken out immediately and homogenized under low temperature condition, then the ammonia concentration in brain tissue was determined by using glutamate dehydrogenase assay.
The same experiment condition in example 6 was adopted except Sodium Glutamate oral taking (the dose was 200 mg/kg) instead of Sodium Glutamate injection and Cryptotanshinone oral taking (dose 150 mg/kg) instead of Cryptotanshinone injection. In the 4th day, 60 min after the acetamide injection, the rats of each group were put to death and brain tissue samples were taken out immediately. Then, the ammonia concentration in brain tissue was determined.

[2] = rats
[3] = tested on: high-level brain ammonia animal model; assay: Brain tissue ammonia concentration reducing experiment (injection); type: in vivo, SD rats; details: for Reduction rate: brain tissue ammonia, intraperitoneal for 4 days, 60 min after acetamide on 4th day; for Brain tissue ammonia concentration: intraperitoneal for 4 days (sodium glutamate 410 mg/kg, Cryptotanshinone 30 mg/kg), brain 60 min after acetamide on 4th day
Excerpt: as §1
Experimental animals were 50 healthy male SD rats, weight between 250-300 g. They were randomly divided into 4 groups, i.e. normal control group, experimental control group ([…]), sodium glutamate/acetamide group, and Cryptotanshinone/acetamide group. The rats in all those groups except the normal control group were injected intraperitoneally with saline, sodium glutamate solution (with a dose of 410 mg/kg), and saline solution of Cryptotanshinone (containing small amount of surface active agent, with a dose of 30 mg/kg) respectively. 45 min after the injection, the rats in all those groups except the normal control group were injected intraperitoneally with 5.5 mmol/kg acetamide. Above injections continued for 4 days. In the 4th day, 60 min after the acetamide injection, the rats of each group were put to death, and brain tissue samples were taken out immediately and homogenized under low temperature condition, then the ammonia concentration in brain tissue was determined by using glutamate dehydrogenase assay.

[4] = tested on: healthy male mice; assay: Acute toxicity test in mouse; type: in vivo; details: intragastric
Excerpt: The drug was administrated intragastrically.

[5] = tested on: AD rat model; assay: Impaired neuro-behavioral symptoms relieving experiment, Morris water labyrinth; type: in vivo, SD rats; parameters: key: —: −Normal; +Dysmnesia (Number of + indicates the extent of memory impairment, and +++++ represents the most severe case.); +++++ represents the most severe case; details: oral 200 mg/kg/day, D-galactose/acetamide rats
Excerpt: Experimental animals were 40 healthy male SD rats, weight between 250-300 g. They were randomly divided into 4 groups, i.e. normal control group, model control group A (D-galactose/quinolinic acid group), model control group B (D-galactose/acetamide group), and Cryptotanshinone group (D-galactose/acetamide/Cryptotanshinone group). Morris water labyrinth method was used to evaluate the neuro-behavioral symptoms of rats model caused by subacute senium and chemical damage by D-galactose.
Normal control group: routine breeding.
Model control group A (D-galactose/quinolinic acid group): D-galactose was injected subcutaneously (50 mg/kg/day, for 6 weeks) to cause subacute senium in rats. Quinolinic acid (1 μL, containing quinolinic acid 75 nmol) was injected into the rats' bilateral hippocampal gyrus to evidently decrease rats' labyrinth learning and memorizing ability, which served as animal model similar to AD.
Model control group B (D-galactose/acetamide group): D-galactose was injected subcutaneously (50 mg/kg/day, for 6 weeks) to cause subacute senium in rats; acetamide (10 mmol/kg/day) was injected intraperitoneally for 7 continuous days. […] The treated rats were served as animal model similar to AD.
Cryptotanshinone group (D-galactose/acetamide/Cryptotanshinone group):
Simultaneously with subcutaneous injection of D-galactose (50 mg/kg/day, for 6 weeks), Cryptotanshinone was orally administered (the dose was 200 mg/kg/day). 10 mmol/kg acetamide was intraperitoneally injected for 7 continuous days (Cryptotanshinone was orally given at the same time).

[6] = tested on: healthy male mice; assay: 30 days toxicity test in mouse; type: in vivo; details: intragastric 200 mg/kg day for 30 days
Description: The drug was continually administrated intragastrically for 30 days with dose of 200 mg/kg day.

[7] = tested on: hyperammonemia rat model; assay: Blood ammonia reducing experiment (injection); type: in vivo, SD rats; details: for Reduction rate: blood ammonia, intraperitoneal for 4 days
Description: The animals used in this experiment were 50 healthy male SD rats weighing 250-300 g. They were randomly divided into 5 groups, that is, normal control group, experimental control group (acetamide group), sodium glutamate/acetamide group, Cryptotanshinone/acetamide group and tanshinone IIA/acetamide group. The rats in all those groups except the normal control group were injected intraperitoneally with saline, sodium glutamate injection (with a dose of 410 mg/kg), saline solution of Cryptotanshinone (containing small amount of surface active agent, with a dose of 10 mg/kg), saline solution of tanshinone IIA (containing small amount of surface active agent, with a dose of 10 mg/kg) respectively. 45 min after the injection, the rats in all those groups except normal control group were injected intraperitoneally with 5.5 mmol/kg acetamide. Above injections continued for 4 days. In the 4th day, 30 min after the acetamide injection, blood samples of the rats in each group were collected by eyeball removing method immediately, and processed with the anticoagulant EDTA-Na, then the blood ammonia concentration was determined using conventional method.
as §1
Using the same experiment method, 90 min after the acetamide injection at the 4th day, blood samples of the rats in each group were collected by eyeball removing method immediately. The blood ammonia concentration was determined.

[8] = Brain tissue entrance experiment; type: in vivo, rats; details: intragastric 300 mg/kg/day for 5 days; brain 1 hour after administration on 5th day; chloroform extract
Description: Experimental animals were healthy male rats. The drug was continually administrated intragastrically at a dose of 300 mg/kg/day, continued for 5 days. 1 hour after administration on the 5th day, rats were put to death and brains were taken out. The brain tissues were homogenized and then extracted with chloroform.

[9] = tested on: hyperammonemia rat model; assay: Blood ammonia reducing experiment (oral); type: in vivo, SD rats

With `C[C@H]1COC2=C1C(=O)C(=O)c1c2ccc2c1CCCC2(C)C` [Cryptotanshinone] the Reduction rate [1] was 45%, the “Brain tissue ammonia concentration” value [1] was 310 nmol/g and the “Content of Cryptotanshinone in tissues” value [2] was “highest in blood and brain tissue”. For the same molecule, the Reduction rate [3] was 60%, the “Brain tissue ammonia concentration” value [3] was 280 nmol/g and the LD50 [4] was > 30 g 1 kg. The “Toxic symptom or death” value ([4]; dose added to 1.5 g/kg) was “no toxic symptom or death”, the “AD Symptom-Dysmnesia Synthetic Index” value ([5]; Day 1 after chemical damage) was “—” and the “AD Symptom-Dysmnesia Synthetic Index” value ([5]; Day 2 after chemical damage) was “—”. The “AD Symptom-Dysmnesia Synthetic Index” value ([5]; Day 3 after chemical damage) was “—”, the “AD Symptom-Dysmnesia Synthetic Index” value ([5]; Day 4 after chemical damage) was “—” and the “AD Symptom-Dysmnesia Synthetic Index” value ([5]; Day 5 after chemical damage) was “+”. The “AD Symptom-Dysmnesia Synthetic Index” value ([5]; Day 6 after chemical damage) was “+”, the “AD Symptom-Dysmnesia Synthetic Index” value ([5]; Day 7 after chemical damage) was “+” and the “Change in growth and development, hematopoiesis function, and biochemical index” value [6] was “no apparent abnormal change or toxic reaction”. The “Death of the tested mice” value [6] was “no death”, the “Pathology of major organs (anatomical and tissue microscopy inspection)” value [6] was “No pathology change” and the Reduction rate ([7]; 30 min after acetamide on 4th day) was 60%. For the same molecule, the “Cryptotanshinone detected in brain tissue with HPLC” value [8] was “Significant amount”.

`Cc1cccc2c3c(ccc12)C1=C(C(=O)C3=O)[C@@H](C)CO1` [Dihydrotanshinone I] showed a Reduction rate ([9]; blood ammonia, oral for 4 days, 90 min after acetamide on 4th day) of 97%, a Blood ammonia concentration ([9]; oral for 4 days (sodium glutamate 200 mg/kg, others 100 mg/kg), blood 90 min after acetamide on 4th day) of 120 µmol/L and a Reduction rate ([7]; 90 min after acetamide on 4th day) of 100%. The Blood ammonia concentration ([7]; intraperitoneal for 4 days (sodium glutamate 410 mg/kg, others 10 mg/kg), blood 90 min after acetamide on 4th day) was 110 µmol/L.

For `N[C@@H](CCC(=O)[O-])C(=O)[O-].[Na+].[Na+]` [Sodium Glutamate, reference compound], the Reduction rate [1] was 19%, the “Brain tissue ammonia concentration” value [1] was 370 nmol/g and the Reduction rate [3] was 28%. The “Brain tissue ammonia concentration” value [3] was 350 nmol/g.

Reference: patent US20040039050A1, “Cryptotanshinone for preventing and alleviating alzheimer's disease” (priority 2001, published 2004)
